The source of these data is patent US11919857B2, “Phthalide derivative, preparation method and use thereof” (LANZHOU INSTITUTE OF CHEMICAL PHYSICS, CHINESE ACADEMY OF …, priority 2018, dated 2024).

Structures are written as SMILES.

Data set [1] concerns PC12 cells. Nature of the data set: Protection against hydrogen peroxide-induced oxidative damage to PC12 nerve cells (MTT). Type of data set: cell-based. To be noted: for protective effect on PC12 nerve cells against hydrogen peroxide (comparison in words): 2.5-50 μM, 250 μM H2O2, FIG. 16. The procedure:
2. Method: PC12 cells were cultured as follows. PC12 cells were inoculated into the high-glucose DMEM medium containing 10% fetal bovine serum, penicillin 100 U mL^−1, and streptomycin 100 μg mL^−1, and cultured in the cell incubator at 37° C. under 5% CO2. The medium was changed every other day. The cells were routinely trypsinized and passaged. The cells were used for experiments when they reached 70-80% confluence.
4. Oxidative damage modeling: PC12 cells in the logarithmic growth phase were inoculated into a 96-well cell culture plate at a density of 5×10^3 cells/well. H2O2 was added at different concentrations, and cultured for 4 h. MTT was added according to the above MTT assay, and A value of each well was measured. The H2O2 concentration at which the cell viability was reduced by 50% was finally selected as the modelling concentration.
Therefore, 250 μM was selected as the induction concentration of nerve cell oxidative damage.
5. Grouping and drug treatment: The experimental groups was divided into the normal blank control group, the H2O2 model group (250 μM), concentration groups (2.5 μM, 5.0 μM, 10 μM, 25 μM, 50 μM) for phthalides and their derivatives, and the positive control group (butylphthalide). Each group for phthalides and their derivatives as well as the positive control group were added with 250 μM H2O2, respectively. In the experiment, the solutions of phthalides and their derivatives were first added respectively, so that the final concentrations reached the corresponding values. After 4 h, H2O2 was added, and MTT was added after 24 h. The A value was measured to calculate the cell viability.

Data set [2] deals with β-amyloid-induced neurotoxicity. To be noted: through p38 and PI3K/Akt signaling pathways; cited from earlier work.
Data set [3] can be described thus: In vivo pharmacokinetics in rats (gavage and intravenous injection), plasma HPLC-DAD. The arrangement: species or system Wistar rats; T1/2ka: unit not given here. The settings on record: rat. Here is the method: Certain amounts of N-cyclopropyl-3-n-butyl-3-hydroxy-ligusticum lactam and N-cyclopropyl-3-n-butyl-3-hydroxy-phthalide lactam standards were accurately weighed respectively, and dissolved and diluted in the methanol to obtain 2.0 mg/mL of standard stock solutions. Certain standard stock solutions were accurately weighed and mixed respectively, and diluted with methanol to […], 0.7813, 1.5625, 3.1250, 6.2500, 12.500, 25.0000, 50.0000, and 500.0 μg/mL. 20 uL of each sample was analyzed by HPLC system, to sequentially determine N-cyclopropyl-3-n-butyl-3-hydroxy-ligusticum lactam and N-cyclopropyl-3-n-butyl-3-hydroxy-phthalide lactam. The peak area (A) was linearly regressed with the concentration C (g/mL), to obtain the regression equation and linear range, detection limit (LOD), and quantification limit (LOQ).
1.2 Preparation method for test sample: The compound prepared according to Example 7 (the content of N-cyclopropyl-3-n-butyl-3-hydroxy-ligusticum lactam is 92.5%; and the content of the compound N-cyclopropyl-3-n-butyl-3-hydroxy-phthalide lactam is 7.5%) was prepared into the raw stock solution at a concentration of 15 mg/mL by 10% ethanol, 20% Tween 80, and 70% physiological saline. The rats were dosed based on the body weights, with a dosage of 90 mg/Kg by oral administration (by gavage) and a dosage of 40 mg/Kg by intravenous injection.
1.3 Pretreatment method for plasma sample: 0.5 mL of rat whole blood was taken and placed in a 1.5 mL centrifuge tube with 20 uL sodium heparin therein, and centrifuged at a high rotation rate of 4×10^3 r·min^−1 for 5 min. 200 μL of plasma was taken and 800 μL of dichloromethane was added. The mixture was vortexed and centrifuged for 10 min at a rotation rate of […]. The lower layer solution was separate and blown to dryness with nitrogen gas at room temperature, and then reconstituted with 300 μL of methanol. The solution was eluted, filtered, and dried to dryness with nitrogen. After adding 30 μL of methanol, the solution was centrifuged, and 20 μL of the supernatant was used to determine the peak areas by HPLC.
1.4 Determination of pharmacokinetic parameters of phthalide derivatives in rats. Twelve male Wistar rats were randomly divided into two groups, wherein 6 rats were administrated with 40 mg/kg of phthalide derivative (the intravenous injection group (i.v.)). At 0 (pre-dose), 0.167, 0.333, 0.5, 1, 2, 3, 4, and 6 hours after administration, about 500 μL of blood was collected from the Angulus oculis, respectively, and 200 μL of plasma was frozen after anticoagulation treatment and centrifugation. 6 rats in the gavage administration (po) group were administrated by 90 mg/kg of phthalide derivative. At 0 (pre-dose), 0.5, 1, 2, 3, 4, 6, 8, 10, and 12 h after administration, about 500 μL of blood was collected from the Angulus oculis, respectively, and 200 μL of plasma was frozen after anticoagulation treatment and centrifugation. The plasma samples were warmed to the room temperature before pretreatment, and 20 μL of the sample solutions were analyzed by liquid chromatography. The blood drug concentration at each time point was calculated according to the standard curve. The dose-time curve was fitted using DAS2.0 software and the pharmacokinetic parameters were calculated. FIGS. 18 and 19 show the dose-time curves by gavage administration and intravenous injection, respectively.

In data set [4] the test system is acute cerebral ischemic infarction (MCAO model). Nature of the data set: Cerebral infarction in acute ischemic stroke, suture-occluded MCAO model. Type of data set: in vivo, Wistar rat. The settings on record: for therapeutic effect on cerebral infarction (words): 3 days after modeling. Here is the method: 1. Experimental animals: […] Wistar male rats (230-250 g), provided by Lanzhou Veterinary Research Institute, Chinese Academy of Agricultural Sciences. 2. […] MCAO model (Middle Cerebral Artery Obstruction in rats) was established through suture-occlusion, and the rats were intraperitoneally injected with 10% chloral hydrate at a dosage of 400 mg/kg for anesthetization. The rats were fixed with supine position method to expose the neck. It was shaved and the skin was cleaned for skin incision. Under gentle operations, the main blood vessels such as left common carotid artery, arteria carotis interna, and arteria carotis externa were separated. The arteria carotis externa was selected to be ligated and disconnected, to avoid the bleeding of the common carotid artery. The common carotid artery was temporarily clamped with an arterial clip. A small opening was cut at the end of arteria carotis […], and used for the placement of the suture-occlusion. The round head of the prepared suture-occlusion was held by the ophthalmic tweezer and gently inserted, with a controlled depth of about 1.8-2.0 cm. The incision was sutured conventionally. After 0.5 h of cerebral ischemia, the suture-occlusion was removed to restore the blood supply. At a certain time after administration, the rats were sacrificed. The brain tissue was stained with 0.5% 2,3,5-triphenyltetrazolium chloride […], and the cerebral infarction area was scanned and calculated, wherein the normal tissue was stained in red and the infarcted tissue was stained in white. 3. Animal grouping: The animals were grouped as follows: the model group (acute ischemia and hypoxia pathological model, administrated with an equal dosage of physiological saline containing 8% Tween-80), the sham operation group (not administrated, as the negative control, administrated with an equal dosage of physiological saline containing 8% Tween-80), the prevention group (administrated 3 days in advance), and treatment group (administrated for 3 days after the blood supply was restored from embolism). 4. Method of administration: […] Results: […] A. Negative model control, infarct area: 30.57%; B. […] C.

Setting [5] is: male, Wistar, in vivo, iv, 40 mg/kg.
The mark [6] stands for this setting: male, Wistar, in vivo, po, 90 mg/kg.
[7] abbreviates: Rattus norvegicus, PC-12, read-out: cell viability.
The mark [8] stands for this setting: treatment group, dosed for 3 days after modeling, 40 mg/kg, intraperitoneal injection.
The mark [9] stands for this setting: po (gavage), 90 mg/kg of Example 7 mixture.

Regarding `CCC/C=C1\OC(=O)C2=C1CCC=C2` [ligustilide, reference compound], the “protective effect on PC12 nerve cells against hydrogen peroxide (comparison in words)” value (“protective effect on PC12 nerve cells” below) in data set [1] is “stronger than that of n-butenylphthalide”. Also, the “concentration at which β-amyloid-induced neurotoxicity is inhibited” value in data set [2] was 1 to 30 µM.
By AUC(0-inf) is commonly meant total exposure, with the tail of the curve extrapolated. For orientation: AUC(0-t) means the area under the concentration-time curve up to a stated or last time point. By Cmax is commonly meant the peak of the concentration-time curve. In general, Tmax refers to the time from dosing to the highest level. As a reminder, the viability is the share of living cells, or the viability signal relative to a control. In data set [3] (setting [5]), `CCCCC1(O)C2=C(C=CCC2)C(=O)N1C1CC1` (racemic) [ligustilide derivative, N-cyclopropyl-3-n-butyl-3-hydroxy-ligusticum lactam] showed an AUC(0-inf) of 12100 ng·h/mL, an AUC(0-t) of 6020 ng·h/mL, a CL1 of 5445.044 L/h/kg and a CL2 of 20518.475 L/h/kg. Further, in data set [3] (setting [5]), the K10 stood at 1.456 h⁻¹, the K12 is 5.488 h⁻¹, the K21 was 1.17 h⁻¹ and the “R_AUC(t/∞)” value is 49.7%. In data set [3] (setting [5]), this molecule showed a V1 of 3739.124 L/kg, a V2 of 17537.504 L/kg, a t1/2α of 0.088 h and a t1/2β of 3.213 h. Besides, in data set [3] (setting [6]), the AUC(0-inf) was 37100 ng·h/mL, the AUC(0-t) came out at 35300 ng·h/mL, the CL1 was determined as 2719.904 L/h/kg and the CL2 is given as 1163.858 L/h/kg. Also, in data set [3] (setting [6]), the CL3 is recorded as 65.258 L/h/kg, the Cmax worked out at 8820 ng/mL, the K10 stood at 3.763 h⁻¹ and the K12 is 1.61 h⁻¹. In data set [3] (setting [6]), this molecule returned a K13 of 0.09 h⁻¹, a K21 of 0.684 h⁻¹, a K31 of 0.272 h⁻¹ and a Ka of 4.021 h⁻¹. For the same molecule, in data set [3] (setting [6]), the “R_AUC(t/∞)” value was 95.4%, the T1/2ka was 0.172, the Tmax turned out to be 1.2 h and the V1 was 722.758 L/kg. Further, in data set [3] (setting [6]), the V2 was found to be 1701.61 L/kg, the V3 was 240.115 L/kg, the t1/2α amounted to 0.122 h and the t1/2β came to 1.478 h. In data set [3] (setting [6]), this molecule displayed a t1/2γ of 2.643 h. The “protective effect on PC12 nerve cells” value in data set [1] was “strongest protective effect”. For the same molecule, in data set [1] (setting [7]), the viability at 2.5 µM turned out to be 80% and the viability at 10 µM amounted to 95%. For the same molecule, in data set [4] (prevention group, pre-dosed for 3 days, modeling, dosed for another 3 days, intraperitoneal injection, model control 30.57%), the infarct area amounted to 22%. For the same molecule, the “anti-embolic effect” value in data set [4] (prevention group, survived animals) is recorded as “relatively weak anti-embolic effects”. Besides, in data set [4] (treatment group, 40 mg/kg, intraperitoneal injection, 40 mg/kg), the “therapeutic effect on cerebral infarction (words)” value is recorded as “complete recanalization”. Further, the “therapeutic effect on cerebral infarction (words)” value in data set [4] (treatment group, 40 mg/kg, intraperitoneal injection, listed as N-cyclopropyl-3-n-butyl-3-hydroxy-ligusticum lactam, 40 mg/kg) is on record as “effectively prevent the occurrence of cerebral infarction”. In data set [4] (setting [8]), the “infarct area, middle portion” value amounted to 0% and the “infarct area, right side, calculated according to the edema removal method” value is “negative value”. Also, the “infarct area, left side” value in data set [4] (treatment group, dosed for 3 days after modeling, 40 mg/kg, intraperitoneal injection, model control 30.57%) is listed as 4%.
In the case of `CCCCC1(O)c2ccccc2C(=O)N1C1CC1` (centres unmarked) [n-butenylphthalide derivative, N-cyclopropyl-3-n-butyl-3-hydroxy-phthalide lactam], in data set [3] (setting [9]), the CL1 is given as 893.769 L/h/kg, the CL2 is on record as 802.825 L/h/kg, the CL3 was -50.58 L/h/kg and the K10 was 1.689 h⁻¹. Further, in data set [3] (setting [9]), the K12 came to 1.517 h⁻¹, the K13 is -0.096 h⁻¹, the K21 is 0.543 h⁻¹ and the K31 is 0.167 h⁻¹. In data set [3] (setting [9]), the Ka is 2.425 h⁻¹, the “R_AUC(t/∞)” value was determined as 89.9%, the T1/2ka stood at 0.286 and the Tmax is given as 1.768 h. Further, in data set [3] (setting [9]), the V1 worked out at 529.323 L/kg, the V2 stood at 1478.868 L/kg, the V3 is -302.598 L/kg and the t1/2α is listed as 0.204 h. Moreover, in data set [3] (setting [9]), the t1/2β stood at 3.029 h and the t1/2γ is given as 3.513 h. For the same molecule, the “protective effect on PC12 nerve cells” value in data set [1] is “almost the same protective effects”.
The cell viability is a per cent measure of how many cells are alive, often set against a control. For `CCCCC1OC(=O)c2ccccc21` (centres unmarked) [butylphthalide, reference compound], the cell viability in data set [1] (drug positive control group, 250 μM H2O2, concentration not given) is 68%.
